Data set [1] deals with Serine/threonine-protein kinase BRSK2 (Homo sapiens) (UniProt Q8IWQ3). The experiment in a line: Binding affinity to wild-type human full length BRSK2 (M1 to L674 residues) expressed in bacterial expression system assessed as residual binding level at 10 uM by Kinomescan method relative to control.
The target in data set [2] is Tyrosine-protein kinase BTK (Homo sapiens) (UniProt Q06187). In words: Binding affinity to wild-type human full length BTK (M1 to S659 residues) expressed in mammalian expression system assessed as residual binding level at 10 uM by Kinomescan method relative to control.
For data set [3], the target named is CDK4/Cyclin D3 (Homo sapiens) (UniProt P11802+P30281). The experiment in a line: Binding affinity to wild-type human full length CDK4/cyclinD3 (M1 to E303 residues) expressed in mammalian expression system assessed as residual binding level at 10 uM by Kinomescan method relative to control.
The target in data set [4] is Dual specificity protein kinase CLK3 (Homo sapiens) (UniProt P49761). In words: Binding affinity to wild-type human full length CLK3 (M1 to R490 residues) expressed in bacterial expression system assessed as residual binding level at 10 uM by Kinomescan method relative to control.
For data set [5], the target named is Dual specificity protein kinase CLK4 (Homo sapiens) (UniProt Q9HAZ1). The experiment in a line: Binding affinity to wild-type human partial length CLK4 (R135 to K481 residues) expressed in bacterial expression system assessed as residual binding level at 10 uM by Kinomescan method relative to control.
Data set [6] addresses Casein kinase I isoform alpha-like (Homo sapiens) (UniProt Q8N752). The experiment in a line: Binding affinity to wild-type human full length CSNK1A1L (M1 to N337 residues) expressed in bacterial expression system assessed as residual binding level at 10 uM by Kinomescan method relative to control.
For data set [7], the system named is Epidermal growth factor receptor (Homo sapiens), P00533 [G719C]. The experiment in a line: Binding affinity to human partial length EGFR G719C mutant (R669 to V1011 residues) expressed in bacterial expression system assessed as residual binding level at 10 uM by Kinomescan method relative to control.
In data set [8] the target is Mitogen-activated protein kinase 1 (Homo sapiens) (UniProt P28482). In words: Binding affinity to wild-type human full length ERK2 (M1 to S360 residues) expressed in bacterial expression system assessed as residual binding level at 10 uM by Kinomescan method relative to control.
Data set [9] deals with Mitogen-activated protein kinase 4 (Homo sapiens) (UniProt P31152). In words: Binding affinity to wild-type human partial length ERK4 (M1 to L365 residues) expressed in bacterial expression system assessed as residual binding level at 10 uM by Kinomescan method relative to control.
The target of data set [10] is Glycogen synthase kinase-3 beta (Homo sapiens) (UniProt P49841). In words: Binding affinity to wild-type human full length GSK3B (M1 to T433 residues) expressed in mammalian expression system assessed as residual binding level at 10 uM by Kinomescan method relative to control.
The target of data set [11] is Inhibitor of nuclear factor kappa-B kinase subunit alpha (Homo sapiens) (UniProt O15111). In words: Binding affinity to wild-type human full length IKK-alpha (M1 to E745 residues) expressed in mammalian expression system assessed as residual binding level at 10 uM by Kinomescan method relative to control.
Data set [12] deals with Mast/stem cell growth factor receptor Kit (Homo sapiens), P10721 [D816V]. The experiment in a line: Binding affinity to human partial length KIT D816V mutant (I571 to D952 residues) expressed in bacterial expression system assessed as residual binding level at 10 uM by Kinomescan method relative to control.
Data set [13] concerns the target LIM domain kinase 1 (Homo sapiens) (UniProt P53667). The experiment in a line: Binding affinity to wild-type human full length LIMK1 (M1 to D647 residues) expressed in bacterial expression system assessed as residual binding level at 10 uM by Kinomescan method relative to control.
Data set [14] concerns the target Mitogen-activated protein kinase kinase kinase 4 (Homo sapiens) (UniProt Q9Y6R4). In words: Binding affinity to wild-type human partial length MAP3K4 (G1319 to E1608 residues) expressed in bacterial expression system assessed as residual binding level at 10 uM by Kinomescan method relative to control.
Data set [15] addresses Misshapen-like kinase 1 (Homo sapiens) (UniProt Q8N4C8). The experiment in a line: Binding affinity to wild-type human partial length MINK (M1 to K312 residues) expressed in mammalian expression system assessed as residual binding level at 10 uM by Kinomescan method relative to control.
In data set [16] the target is Mitogen-activated protein kinase kinase kinase 10 (Homo sapiens) (UniProt Q02779). In words: Binding affinity to wild-type human partial length MLK2 (V52 to W380 residues) expressed in bacterial expression system assessed as residual binding level at 10 uM by Kinomescan method relative to control.
The subject of data set [17] is Phosphatidylinositol 4,5-bisphosphate 3-kinase catalytic subunit alpha isoform (Homo sapiens), P42336 [C420R]. In words: Binding affinity to human partial length PIK3CA C420R mutant (R108 to N1068 residues) expressed in mammalian expression system assessed as residual binding level at 10 uM by Kinomescan method relative to control.
Data set [18] relates to Phosphatidylinositol 4,5-bisphosphate 3-kinase catalytic subunit alpha isoform (Homo sapiens), P42336 [H1047Y]. In words: Binding affinity to human partial length PIK3CA H1047Y mutant (R108 to N1068 residues) expressed in mammalian expression system assessed as residual binding level at 10 uM by Kinomescan method relative to control.
For data set [19], the target named is Ribosomal protein S6 kinase alpha-3 (Homo sapiens) (UniProt P51812). In words: Binding affinity to wild-type human partial length C-terminal RSK2 kinase domain 2 (V402 to S715 residues) expressed in mammalian expression system assessed as residual binding level at 10 uM by Kinomescan method relative to control.
Data set [20] deals with Non-receptor tyrosine-protein kinase TNK1 (Homo sapiens) (UniProt Q13470). In words: Binding affinity to wild-type human full length TNK1 (M1 to P661 residues) expressed in bacterial expression system assessed as residual binding level at 10 uM by Kinomescan method relative to control.
The target of data set [21] is Non-receptor tyrosine-protein kinase TYK2 (Homo sapiens) (UniProt P29597). In words: Binding affinity to wild-type human partial length TYK2 JH1 catalytic domain (V877 to C1187 residues) expressed in mammalian expression system assessed as residual binding level at 10 uM by Kinomescan method relative to control.
The target in data set [22] is Tyrosine-protein kinase ZAP-70 (Homo sapiens) (UniProt P43403). In words: Binding affinity to wild-type human partial length ZAP70 (D20 to G299 residues) expressed in mammalian expression system assessed as residual binding level at 10 uM by Kinomescan method relative to control.
The nature of data set [23]: Stability of compound in D2O at 0.012 mmol followed by TBHP addition measured after 24 hrs by 1H-NMR spectroscopy. The format is physicochemical.
Data set [24] concerns the target Mitogen-activated protein kinase kinase kinase 12 (DLK) (Homo sapiens) (UniProt Q12852). The experiment in a line: Binding affinity to wild-type human full length DLK (M1 to P859 residues) expressed in mammalian expression system assessed as residual binding level at 10 uM by Kinomescan method relative to control.

Chain of Serine/threonine-protein kinase BRSK2 (Homo sapiens) (Q8IWQ3 whole entry, the tested form may be a part): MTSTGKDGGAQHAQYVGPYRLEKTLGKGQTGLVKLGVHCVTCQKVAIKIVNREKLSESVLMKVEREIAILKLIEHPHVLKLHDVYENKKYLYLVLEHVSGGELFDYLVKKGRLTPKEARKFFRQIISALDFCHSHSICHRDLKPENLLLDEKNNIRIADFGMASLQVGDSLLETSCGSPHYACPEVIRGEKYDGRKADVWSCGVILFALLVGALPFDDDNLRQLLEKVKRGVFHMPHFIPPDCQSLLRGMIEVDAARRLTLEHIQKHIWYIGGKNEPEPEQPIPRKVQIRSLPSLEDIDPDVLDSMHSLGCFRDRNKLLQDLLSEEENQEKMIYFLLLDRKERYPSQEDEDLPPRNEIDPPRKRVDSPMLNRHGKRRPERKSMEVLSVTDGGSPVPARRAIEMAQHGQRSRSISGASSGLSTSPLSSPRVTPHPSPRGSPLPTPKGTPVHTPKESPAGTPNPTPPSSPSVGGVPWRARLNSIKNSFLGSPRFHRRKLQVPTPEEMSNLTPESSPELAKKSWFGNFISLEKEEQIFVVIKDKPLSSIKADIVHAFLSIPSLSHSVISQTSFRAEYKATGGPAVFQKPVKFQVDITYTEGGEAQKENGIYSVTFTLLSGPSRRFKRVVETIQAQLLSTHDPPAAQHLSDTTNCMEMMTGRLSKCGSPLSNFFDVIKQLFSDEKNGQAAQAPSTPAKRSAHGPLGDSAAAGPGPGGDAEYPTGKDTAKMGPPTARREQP
Chain of Phosphatidylinositol 4,5-bisphosphate 3-kinase catalytic subunit alpha isoform (Homo sapiens), P42336 [C420R] (P42336 whole entry C420R, the tested form may be a part, canonical isoform): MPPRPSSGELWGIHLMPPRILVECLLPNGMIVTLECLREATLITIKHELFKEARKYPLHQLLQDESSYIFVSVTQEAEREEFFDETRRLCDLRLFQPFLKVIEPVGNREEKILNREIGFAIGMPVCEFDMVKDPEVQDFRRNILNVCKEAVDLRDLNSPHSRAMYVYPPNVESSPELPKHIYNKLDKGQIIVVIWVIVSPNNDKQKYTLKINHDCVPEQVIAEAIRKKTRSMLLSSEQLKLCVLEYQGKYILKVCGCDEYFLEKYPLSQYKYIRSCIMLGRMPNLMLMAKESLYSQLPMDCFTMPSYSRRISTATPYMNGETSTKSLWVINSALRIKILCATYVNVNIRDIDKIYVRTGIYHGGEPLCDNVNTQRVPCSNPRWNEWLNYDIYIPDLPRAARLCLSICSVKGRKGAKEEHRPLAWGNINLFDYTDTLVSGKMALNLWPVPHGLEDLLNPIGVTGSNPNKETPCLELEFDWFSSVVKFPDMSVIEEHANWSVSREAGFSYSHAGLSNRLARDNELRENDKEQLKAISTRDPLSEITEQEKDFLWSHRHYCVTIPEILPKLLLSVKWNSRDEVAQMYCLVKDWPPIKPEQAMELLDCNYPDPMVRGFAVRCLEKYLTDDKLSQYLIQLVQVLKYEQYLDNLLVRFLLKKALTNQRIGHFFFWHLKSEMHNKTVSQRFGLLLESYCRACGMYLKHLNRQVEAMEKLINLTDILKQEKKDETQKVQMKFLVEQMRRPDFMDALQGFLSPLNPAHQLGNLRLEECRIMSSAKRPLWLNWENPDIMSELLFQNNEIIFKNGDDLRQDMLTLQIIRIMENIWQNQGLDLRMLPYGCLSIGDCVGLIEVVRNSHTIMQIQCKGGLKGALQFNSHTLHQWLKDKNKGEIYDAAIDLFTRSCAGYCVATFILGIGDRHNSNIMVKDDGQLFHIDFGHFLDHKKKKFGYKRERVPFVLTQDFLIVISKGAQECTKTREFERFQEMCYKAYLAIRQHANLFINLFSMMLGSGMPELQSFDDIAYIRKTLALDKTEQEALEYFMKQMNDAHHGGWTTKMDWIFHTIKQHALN
Chain of Tyrosine-protein kinase BTK (Homo sapiens) (Q06187 whole entry, the tested form may be a part): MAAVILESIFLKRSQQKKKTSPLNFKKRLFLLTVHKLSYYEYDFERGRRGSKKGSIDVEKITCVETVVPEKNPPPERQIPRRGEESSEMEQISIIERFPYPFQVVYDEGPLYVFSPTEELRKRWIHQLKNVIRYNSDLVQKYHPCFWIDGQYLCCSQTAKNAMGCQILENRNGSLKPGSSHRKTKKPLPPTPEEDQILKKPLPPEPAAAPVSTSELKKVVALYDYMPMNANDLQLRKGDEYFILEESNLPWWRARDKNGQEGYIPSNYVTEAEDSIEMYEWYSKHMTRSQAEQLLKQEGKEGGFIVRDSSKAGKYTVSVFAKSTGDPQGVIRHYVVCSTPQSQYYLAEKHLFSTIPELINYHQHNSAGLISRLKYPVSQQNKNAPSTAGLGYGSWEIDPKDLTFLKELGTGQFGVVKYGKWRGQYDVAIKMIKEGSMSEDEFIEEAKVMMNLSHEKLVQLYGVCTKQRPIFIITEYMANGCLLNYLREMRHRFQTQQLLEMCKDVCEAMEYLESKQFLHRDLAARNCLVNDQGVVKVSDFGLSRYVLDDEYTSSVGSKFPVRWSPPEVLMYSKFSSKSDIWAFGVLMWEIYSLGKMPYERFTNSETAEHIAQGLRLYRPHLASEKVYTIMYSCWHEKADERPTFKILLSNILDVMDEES
Chain of Inhibitor of nuclear factor kappa-B kinase subunit alpha (Homo sapiens) (O15111 whole entry, the tested form may be a part): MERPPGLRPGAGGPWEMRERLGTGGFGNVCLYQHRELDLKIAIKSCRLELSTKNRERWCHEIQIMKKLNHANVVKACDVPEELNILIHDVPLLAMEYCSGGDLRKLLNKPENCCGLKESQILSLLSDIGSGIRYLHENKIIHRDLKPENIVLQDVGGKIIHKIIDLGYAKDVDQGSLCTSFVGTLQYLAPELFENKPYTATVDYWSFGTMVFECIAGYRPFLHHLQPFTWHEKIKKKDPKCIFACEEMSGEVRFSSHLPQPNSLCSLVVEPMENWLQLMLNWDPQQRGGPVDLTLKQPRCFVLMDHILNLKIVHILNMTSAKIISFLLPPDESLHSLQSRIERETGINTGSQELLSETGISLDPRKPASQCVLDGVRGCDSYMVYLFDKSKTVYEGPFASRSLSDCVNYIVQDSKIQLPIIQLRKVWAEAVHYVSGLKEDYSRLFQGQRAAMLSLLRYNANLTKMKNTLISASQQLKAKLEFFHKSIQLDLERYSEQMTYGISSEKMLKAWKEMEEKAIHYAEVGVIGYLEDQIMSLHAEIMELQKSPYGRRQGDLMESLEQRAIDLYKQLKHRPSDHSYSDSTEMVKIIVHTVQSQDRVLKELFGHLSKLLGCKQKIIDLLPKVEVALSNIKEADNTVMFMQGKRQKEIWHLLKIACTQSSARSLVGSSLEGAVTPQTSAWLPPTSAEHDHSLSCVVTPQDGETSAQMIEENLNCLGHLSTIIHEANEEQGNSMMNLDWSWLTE
Chain of Mitogen-activated protein kinase kinase kinase 12 (DLK) (Homo sapiens) (Q12852 whole entry, looked up, the tested form may be a part): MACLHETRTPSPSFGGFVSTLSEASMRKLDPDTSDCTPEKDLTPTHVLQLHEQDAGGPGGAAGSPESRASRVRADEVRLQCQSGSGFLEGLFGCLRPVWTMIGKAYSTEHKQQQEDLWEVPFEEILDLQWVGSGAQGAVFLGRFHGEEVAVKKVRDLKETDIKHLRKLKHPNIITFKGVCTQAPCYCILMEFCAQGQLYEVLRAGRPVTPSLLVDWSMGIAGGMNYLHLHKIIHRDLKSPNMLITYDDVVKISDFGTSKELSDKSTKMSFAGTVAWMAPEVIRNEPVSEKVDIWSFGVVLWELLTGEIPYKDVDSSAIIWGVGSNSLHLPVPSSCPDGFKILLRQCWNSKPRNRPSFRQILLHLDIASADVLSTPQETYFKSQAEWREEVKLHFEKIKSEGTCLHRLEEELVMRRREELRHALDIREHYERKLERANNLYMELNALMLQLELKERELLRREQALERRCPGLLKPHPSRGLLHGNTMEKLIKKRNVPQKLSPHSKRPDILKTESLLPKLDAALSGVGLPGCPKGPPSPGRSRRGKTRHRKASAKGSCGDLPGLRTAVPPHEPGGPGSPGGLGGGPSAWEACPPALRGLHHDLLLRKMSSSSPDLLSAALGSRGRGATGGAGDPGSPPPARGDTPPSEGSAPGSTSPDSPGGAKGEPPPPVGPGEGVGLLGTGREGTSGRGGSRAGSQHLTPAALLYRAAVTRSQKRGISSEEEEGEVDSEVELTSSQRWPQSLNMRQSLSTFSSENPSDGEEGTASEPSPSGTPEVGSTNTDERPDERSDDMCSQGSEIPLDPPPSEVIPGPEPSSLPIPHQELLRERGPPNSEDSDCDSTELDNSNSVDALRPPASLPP
Chain of Ribosomal protein S6 kinase alpha-3 (Homo sapiens) (P51812 whole entry, the tested form may be a part): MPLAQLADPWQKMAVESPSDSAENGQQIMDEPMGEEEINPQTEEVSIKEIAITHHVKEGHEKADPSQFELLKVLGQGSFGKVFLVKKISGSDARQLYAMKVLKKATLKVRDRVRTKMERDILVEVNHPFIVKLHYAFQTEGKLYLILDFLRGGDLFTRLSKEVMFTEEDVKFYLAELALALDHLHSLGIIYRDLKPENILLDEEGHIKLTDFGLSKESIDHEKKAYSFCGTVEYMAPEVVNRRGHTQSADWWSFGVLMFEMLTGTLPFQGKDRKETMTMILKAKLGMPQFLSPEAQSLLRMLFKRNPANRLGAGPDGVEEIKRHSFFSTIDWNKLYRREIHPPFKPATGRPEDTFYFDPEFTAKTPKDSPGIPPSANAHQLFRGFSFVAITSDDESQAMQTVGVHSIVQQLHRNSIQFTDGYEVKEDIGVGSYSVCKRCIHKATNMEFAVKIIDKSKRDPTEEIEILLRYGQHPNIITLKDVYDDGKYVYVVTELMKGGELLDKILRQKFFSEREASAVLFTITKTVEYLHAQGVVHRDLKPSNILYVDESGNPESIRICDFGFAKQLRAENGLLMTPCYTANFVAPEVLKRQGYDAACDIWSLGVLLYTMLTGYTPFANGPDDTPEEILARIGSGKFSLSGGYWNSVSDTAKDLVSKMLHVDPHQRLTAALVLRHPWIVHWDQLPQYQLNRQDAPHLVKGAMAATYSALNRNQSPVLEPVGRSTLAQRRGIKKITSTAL

With `CC(C)N1C(=O)C(NCCCN(C)C)=C(c2cn(C)c3ccccc23)C1=O.Cl`, the Activity in [1] came to 86%; in [2], 100%; in data set [3] it was 93%; in data set [4] it was 92%; in [5] it was 95%; in data set [6] it was 99%. The Activity was 100% in [7]; 95% in [8]; 100% in [9]; 84% in data set [10]; 81% in data set [11]; 94% in [12]. Moreover, the Activity in data set [13] came out at 100%; in data set [14], 85%; in [15] it was 94%; in data set [16] it was 83%; in data set [17], 75%; in data set [18], 94%. The Activity in data set [19] is 87%; in data set [20], 95%; in data set [21], 82%; in data set [22], 100%; in data set [24], 99%. Moreover, in data set [23], the Stability entry is “Stable”.

These data come from ChEMBL document CHEMBL4304811, “Development of a Water-Soluble Indolylmaleimide Derivative IM-93 Showing Dual Inhibition of Ferroptosis and NETosis” (ACS Med Chem Lett, 2019).
